Results from US9056865B2, “Pyridine-2-derivatives as smoothened receptor modulators” (Pfizer Inc., priority 2010, dated 2015).

Key:
Gli-Luc/MEF cells = experiment: Gli-Luc/MEF assay; format: cell-based, mouse; details: Mus musculus, MEF; Shh-stimulated luciferase, 48 hours
Protocol: The Gli-Luc/MEF cells obtained from Gli-Luc transgenic mice contain a luciferase reporter gene under the control of the Gli response element. Luciferase activity stimulated with Sonic hedgehog ligand was inhibited by Smo inhibitors, and IC50 was subsequently calculated.
Plates were incubated at 37° C. and 5% CO2 overnight. On day two, cells were dosed with test compounds at a final concentration ranging from 3 μM to 50 μM at a 3-time series dilution. Immediately after dosing cells with compounds, recombinant mouse sonic hedgehog (Shh, R&D Systems 464-SH) was added to a final concentration of 2 μg/mL. The cells were incubated with compounds and Shh for 48 hours at 37° C. and 5% CO2. Luciferase assays were conducted on Day 4 using the Bright-Glo Luciferase assay system (Promega E2620) according to Promega's protocol. Briefly, Bright-Glo luciferase reagent was made up and 25 μL were added to each well of the 384-well plate containing media. Plates were kept at room temperature for 5 minutes, and then read on an Envision Luminescence plate reader (Perkin-Elmer). IC50 of the inhibition was calculated by using GraphPad Prism.

human Smo = human Smo (Homo sapiens (Human), UniProt Q99835); experiment: Smo radioligand competition binding assay; details: for inhibition at 0.05 µM: 0.05 μM test compound, read-out: Smo % inh. @ 0.05 μM
Chain of human Smo (Q99835 181-787): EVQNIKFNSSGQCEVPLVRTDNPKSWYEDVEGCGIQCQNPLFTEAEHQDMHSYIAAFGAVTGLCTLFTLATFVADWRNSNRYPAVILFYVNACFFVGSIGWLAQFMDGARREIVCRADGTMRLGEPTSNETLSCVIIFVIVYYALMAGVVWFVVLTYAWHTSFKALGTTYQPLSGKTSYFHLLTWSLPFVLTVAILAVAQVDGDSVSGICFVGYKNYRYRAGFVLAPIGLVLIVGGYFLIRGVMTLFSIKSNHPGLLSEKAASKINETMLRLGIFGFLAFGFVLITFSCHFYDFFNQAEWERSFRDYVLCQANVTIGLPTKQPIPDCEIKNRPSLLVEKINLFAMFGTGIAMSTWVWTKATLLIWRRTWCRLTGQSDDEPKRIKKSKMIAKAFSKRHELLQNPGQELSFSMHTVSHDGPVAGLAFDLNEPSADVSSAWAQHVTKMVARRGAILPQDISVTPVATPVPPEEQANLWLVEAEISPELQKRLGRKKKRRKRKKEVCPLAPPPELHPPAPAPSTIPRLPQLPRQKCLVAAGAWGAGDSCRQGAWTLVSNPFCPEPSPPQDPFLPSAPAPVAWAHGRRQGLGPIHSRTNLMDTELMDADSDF
Protocol: Smo Radioligand Competition Binding Assay
Membranes were prepared from a stable cell line created in HEK293FlpIn-TetR cells (Invitrogen) using Flp recombinase-mediated insertion of the pSecTag-FRT/V5-His vector containing a cDNA encoding amino acids […] of human Smo fused to the murine Igk leader sequence to produce a cell surface expressed Smo 181-781 protein. Hygromycin-resistant clones were obtained and stained for LacZ expression (no expression indicates a correct knock-in of fusion cDNA). LacZ-negative cells were analyzed for binding tritiated Smo antagonists. For membrane preparation, the HEK293 cells expressing Smo 181-781 were grown to 90% confluence in nine to fifteen 245 mm×245 mm×22 mm dishes, washed with Dulbecco's PBS (15 mL per dish) and harvested via scraping in 10 mL of DPBS. The cells were collected and centrifuged at 1500 rpm (400×g) for 10 min at 4° C. The cell pellets were re-suspended in 40 mL of cold DPBS and washed by centrifugation at 2300 rpm (950×g max) for 10 minutes at 4° C. The supernatant was aspirated and the cell pellet was snap frozen in a methanol/dry ice bath and stored at −70° C. For membrane preparation, 15 mL of Membrane Preparation Buffer (50 mM Tris-HCl pH 7.5, 250 mM sucrose with Roche complete protease cocktail tablets) was added to the tube containing the cell pellet, then cells are rapidly thawed, and homogenized using an Ultra-Turrax T8 (IKA Labortechnik) set on “6” for 15 seconds for 5-6 times in icy water bath. This homogenate was diluted up to 50 mL using Membrane Preparation Buffer and centrifuged at 35,000 rpm in a Beckman Ti45 rotor (140,000×g) for 35 minutes at 4° C. followed by aspiration of the supernatant and re-suspension of the pellet in 5 mL of Assay Buffer (50 mM Tris-HCl pH 7.5, 100 mM NaCl, 25 mM MgCl2, 1 mM EDTA, and 0.1% protease free bovine serum albumin). The re-suspended pellet was then homogenized in a glass tissue grinder. The re-suspended membranes were aliquoted (0.5 mL aliquots), snap frozen and stored at −70° C. Total protein in the membrane preparation was determined using the Pierce BCA protein assay (Pierce Chemical).
For the binding competition assay, 100 μL of Assay Buffer was added to all the wells of a 96 well GF/B filter plate (Millipore MultiScreen-HTS-FB cat# MSFBN6B50) for 10 minutes to pre-wet the filter prior to evacuation of the buffer (8 inches Hg for 8 seconds). To the pre-wet wells is added: 20 μL of Assay Buffer, 10 μL diluted test agent, 20 μL of a tritiated Smo antagonist (15 nM stock solution), and 50 μL of membrane preparation (40 μg total protein per well). The plates are sealed and mixed at room temperature for 5 min, incubated at room temperature for 2 hours, then washed 5 times with 100 μL/each of wash buffer and vacuum dried for 8 seconds at 8 inches Hg. The plate is then dried for one hour in a 60° C. oven prior to the addition of 45 μL of Microscint 20 (Packard, #6013621) to each well and incubation at RT for 30 minutes to 1 hour. The plate is counted in a TopCount scintillation counter (Perkin Elmer).
Data analysis uses Excel for % Inhibition and Graphpad Prism for IC50 calculation. Total binding (TB, in the absence of inhibitors)=average of tritiated Smo antagonist 3 nM+Smo membrane (40 μg/wells (approx 5000-7000 CPM)). Non-specific binding (NSB)=average of tritiated Smo antagonist (3 nM)+cold Smo antagonist (30 μM)+Smo membrane (approx 600-1200 CPM). Specific binding (SB)=(total binding−non-specific binding). % Inhibition=[1−(compound Specific binding/control Specific binding)]×100%. IC50 is calculated by fitting the data to the four parameter sigmoidal dose-response curve (variable slope) Y=Bottom+(Top-Bottom)/(1+10^((LogEC50−X)*HillSlope)). X is the logarithm of the inhibitor concentration. Y is the response; Y starts at Bottom and goes to Top with a sigmoid shape.

`COCC(=O)N1CCN(c2cc(-c3ncccc3C)c(Cl)cn2)CC1` [Example A-28, 5′-chloro-2′-[4-(methoxyacetyl)piperazin-1-yl]-3-methyl-2,4′-bipyridine] showed an IC50 (Gli-Luc/MEF cells) of 146 nM, an IC50 (human Smo) of 212 nM and an inhibition at 0.05 µM (human Smo) of 68.9%.
Work on `COCCC(=O)N1CCN(c2cc(-c3ncccc3C)c(Cl)cn2)CC1` [Example A-29, 5′-chloro-2′-[4-(3-methoxypropanoyl)piperazin-1-yl]-3-methyl-2,4′-bipyridine] yielded an IC50 (Gli-Luc/MEF cells) of 42.5 nM, an IC50 (human Smo) of 52.3 nM and an inhibition at 0.05 µM (human Smo) of 89.3%.
`Cc1cccnc1-c1nc(N2CCC(O)CC2)ncc1Cl` [Example A-30, 1-[5-chloro-4-(3-methylpyridin-2-yl)pyrimidin-2-yl]piperidin-4-ol] gave an IC50 (Gli-Luc/MEF cells) of 246 nM, an IC50 (human Smo) of 160 nM and an inhibition at 0.05 µM (human Smo) of 77.7%.
`Cc1cccnc1-c1cc(N2CCC(NC(=O)CN(C)C)CC2)ncc1Cl` [Example A-31, N-(1-(5′-chloro-3-methyl-[2,4′-bipyridin]-2′-yl)piperidin-4-yl)-2-(dimethylamino)acetamide] gave an IC50 (Gli-Luc/MEF cells) of 20.8 nM, an IC50 (human Smo) of 43.4 nM and an inhibition at 0.05 µM (human Smo) of 89.2%.
Compound `COC(=O)NC1CCN(c2cc(-c3ncccc3C)c(Cl)cn2)CC1` [Example A-32, methyl [1-(5′-chloro-3-methyl-2,4′-bipyridin-2′-yl)piperidin-4-yl]carbamate] has an IC50 (Gli-Luc/MEF cells) of 27.4 nM, an IC50 (human Smo) of 77.9 nM and an inhibition at 0.05 µM (human Smo) of 86.6%.
With `Cc1cccnc1-c1nc(N2CCN(S(C)(=O)=O)CC2)ncc1Cl` [Example A-33, 5-chloro-4-(3-methylpyridin-2-yl)-2-[4-(methylsulfonyl)piperazin-1-yl]pyrimidine] the IC50 (Gli-Luc/MEF cells) was 113 nM, the IC50 (human Smo) was 172 nM and the inhibition at 0.05 µM (human Smo) was 76.9%.
With `Cc1cccnc1-c1nc(N2CCC(NS(C)(=O)=O)CC2)ncc1Cl` [Example A-34, N-{1-[5-chloro-4-(3-methylpyridin-2-yl)pyrimidin-2-yl]piperidin-4-yl}methanesulfonamide] the IC50 (Gli-Luc/MEF cells) was 20.9 nM, the IC50 (human Smo) was 24.4 nM and the inhibition at 0.05 µM (human Smo) was 94.8%.
In the case of `CC(=O)NC1CCN(c2cc(-c3ncccc3C)c(Cl)cn2)CC1` [Example A-35, N-[1-(5′-chloro-3-methyl-2,4′-bipyridin-2′-yl)piperidin-4-yl]acetamide], the IC50 (Gli-Luc/MEF cells) is reported as 67.7 nM, the IC50 (human Smo) is reported as 199 nM and the inhibition at 0.05 µM (human Smo) is reported as 70.6%.
For `COC(=O)N1CCN(c2ncc(Cl)c(-c3ncccc3C)n2)CC1` [Example A-36, methyl 4-[5-chloro-4-(3-methylpyridin-2-yl)pyrimidin-2-yl]piperazine-1-carboxylate], the IC50 (Gli-Luc/MEF cells) was 109 nM, the IC50 (human Smo) was 246 nM and the inhibition at 0.05 µM (human Smo) was 72.7%.
`COCCOCC1CCN(c2cc(-c3ncccc3C)c(Cl)cn2)CC1` [Example A-37, 5′-chloro-2′-{4-[(2-methoxyethoxy)methyl]piperidin-1-yl}-3-methyl-2,4′-bipyridine] was tested, and the IC50 (Gli-Luc/MEF cells) was 98 nM, the IC50 (human Smo) was 209 nM and the inhibition at 0.05 µM (human Smo) was 71.6%.
Work on `Cc1cccnc1-c1cc(N2CCC(OCC(C)C)CC2)ncc1Cl` [Example A-38, 5′-chloro-2′-(4-isobutoxypiperidin-1-yl)-3-methyl-2,4′-bipyridine] yielded an IC50 (Gli-Luc/MEF cells) of 60.2 nM, an IC50 (human Smo) of 164 nM and an inhibition at 0.05 µM (human Smo) of 78.5%.
For `CCOC(=O)N1CCN(c2cc(-c3ncccc3C)c(Cl)cn2)CC1` [Example A-39, ethyl 4-(5′-chloro-3-methyl-2,4′-bipyridin-2′-yl)piperazine-1-carboxylate], the IC50 (Gli-Luc/MEF cells) was 48.5 nM, the IC50 (human Smo) was 109 nM and the inhibition at 0.05 µM (human Smo) was 80.7%.
For `CCCNC(=O)COC1CCN(c2cc(-c3ncccc3C)c(Cl)cn2)CC1` [Example A-40, 2-{[1-(5′-chloro-3-methyl-2,4′-bipyridin-2′-yl)piperidin-4-yl]oxy}-N-propylacetamide], the IC50 (Gli-Luc/MEF cells) was 114 nM, the IC50 (human Smo) was 254 nM and the inhibition at 0.05 µM (human Smo) was 70.2%.
`CCN(CC)C(=O)COC1CCN(c2cc(-c3ncccc3C)c(Cl)cn2)CC1` [Example A-41, 2-{[1-(5′-chloro-3-methyl-2,4′-bipyridin-2′-yl)piperidin-4-yl]oxy}-N,N-diethylacetamide] showed an IC50 (Gli-Luc/MEF cells) of 28.5 nM, an IC50 (human Smo) of 131 nM and an inhibition at 0.05 µM (human Smo) of 82.3%.
With `Cc1cccnc1-c1cc(N2CCC(OCC(=O)NC(C)(C)C)CC2)ncc1Cl` [Example A-42, N-tert-butyl-2-{[1-(5′-chloro-3-methyl-2,4′-bipyridin-2′-yl)piperidin-4-yl]oxy}acetamide] the IC50 (Gli-Luc/MEF cells) was 37.1 nM, the IC50 (human Smo) was 125 nM and the inhibition at 0.05 µM (human Smo) was 80.5%.
`Cc1cccnc1-c1cc(N2CCN(C(=O)C(C)(C)C)CC2)ncc1Cl` [Example A-43, 5′-chloro-2′-[4-(2,2-dimethylpropanoyl)piperazin-1-yl]-3-methyl-2,4′-bipyridine] gave an IC50 (Gli-Luc/MEF cells) of 19.1 nM, an IC50 (human Smo) of 25.5 nM and an inhibition at 0.05 µM (human Smo) of 95%.
Compound `Cc1cccnc1-c1cc(N2CCN(C(=O)C(C)C)CC2)ncc1Cl` [Example A-44, 5′-chloro-2′-(4-isobutyrylpiperazin-1-yl)-3-methyl-2,4′-bipyridine] has an IC50 (Gli-Luc/MEF cells) of 80.2 nM, an IC50 (human Smo) of 128 nM and an inhibition at 0.05 µM (human Smo) of 82.9%.
`CS(=O)(=O)NC1CCN(c2ncc(Cl)c(-c3ccccn3)n2)CC1` [Example A-45, N-[1-(5-chloro-4-pyridin-2-ylpyrimidin-2-yl)piperidin-4-yl]methanesulfonamide] gave an IC50 (Gli-Luc/MEF cells) of 58.2 nM, an IC50 (human Smo) of 83.7 nM and an inhibition at 0.05 µM (human Smo) of 80.1%.
In the case of `Cc1cccnc1-c1cc(N2CCN(c3ncc(Br)cn3)CC2)ncc1Cl` [Example A-46, 2′-[4-(5-bromopyrimidin-2-yl)piperazin-1-yl]-5′-chloro-3-methyl-2,4′-bipyridine], the IC50 (Gli-Luc/MEF cells) is reported as 21.1 nM and the inhibition at 0.05 µM (human Smo) is reported as 97.6%.
For `Cc1cccnc1-c1cc(N2CCN(C(=O)CC(C)(C)O)CC2)ncc1Cl` [Example A-47, 4-[4-(5′-chloro-3-methyl-2,4′-bipyridin-2′-yl)piperazin-1-yl]-2-methyl-4-oxobutan-2-ol], the IC50 (Gli-Luc/MEF cells) was 36.3 nM, the IC50 (human Smo) was 21.7 nM and the inhibition at 0.05 µM (human Smo) was 95.2%.
`Cc1cccnc1-c1cc(N2CCC(CNS(C)(=O)=O)CC2)ncc1Cl` [Example A-48, N-{[1-(5′-chloro-3-methyl-2,4′-bipyridin-2′-yl)piperidin-4-yl]methyl}methanesulfonamide] showed an IC50 (Gli-Luc/MEF cells) of 48 nM, an IC50 (human Smo) of 57 nM and an inhibition at 0.05 µM (human Smo) of 82%.
In the case of `Cc1cccnc1-c1cc(N2CCC(NCCS(C)(=O)=O)CC2)ncc1Cl` [Example A-49, 1-(5′-chloro-3-methyl-2,4′-bipyridin-2′-yl)-N-[2-(methylsulfonyl)ethyl]piperidin-4-amine], the IC50 (Gli-Luc/MEF cells) is reported as 44 nM, the IC50 (human Smo) is reported as 39 nM and the inhibition at 0.05 µM (human Smo) is reported as 87%.
Work on `Cc1cccnc1-c1ccnc(N2CCC(NS(C)(=O)=O)CC2)n1` [Example A-50, N-{1-[4-(3-methylpyridin-2-yl)pyrimidin-2-yl]piperidin-4-yl}methanesulfonamide] yielded an IC50 (Gli-Luc/MEF cells) of 27.4 nM, an IC50 (human Smo) of 17.7 nM and an inhibition at 0.05 µM (human Smo) of 97.1%.
